Data on one compound can be found in ChEMBL document CHEMBL5532747, “Potent, Selective, and Orally Bioavailable Quinazoline-Based STK17A/B Dual Inhibitors” (ACS Med Chem Lett, 2024).

For data set [1], the target named is T1, LIM domain kinase 1 (Homo sapiens, UniProt P53667). Put plainly: Inhibition of LIMK1 (unknown origin) in presence of ATP.
Target sequence in this assay (P53667 whole entry, the tested form may be a part): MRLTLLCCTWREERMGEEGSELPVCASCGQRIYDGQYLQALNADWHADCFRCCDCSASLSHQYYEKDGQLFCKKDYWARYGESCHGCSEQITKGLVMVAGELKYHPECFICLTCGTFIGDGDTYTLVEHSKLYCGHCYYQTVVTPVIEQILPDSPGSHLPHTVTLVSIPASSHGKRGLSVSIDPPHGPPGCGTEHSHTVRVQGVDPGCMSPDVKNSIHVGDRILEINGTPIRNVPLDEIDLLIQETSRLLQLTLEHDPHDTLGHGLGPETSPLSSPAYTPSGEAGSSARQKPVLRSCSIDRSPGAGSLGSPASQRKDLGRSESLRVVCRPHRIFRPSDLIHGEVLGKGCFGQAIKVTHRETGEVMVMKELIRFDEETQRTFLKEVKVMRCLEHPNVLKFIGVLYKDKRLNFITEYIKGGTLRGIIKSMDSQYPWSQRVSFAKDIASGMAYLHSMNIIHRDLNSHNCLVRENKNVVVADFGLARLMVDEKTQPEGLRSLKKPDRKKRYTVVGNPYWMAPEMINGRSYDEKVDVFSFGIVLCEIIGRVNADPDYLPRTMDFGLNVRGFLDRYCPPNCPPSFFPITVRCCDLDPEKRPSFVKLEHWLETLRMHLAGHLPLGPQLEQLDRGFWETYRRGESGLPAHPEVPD
Data set [2] addresses T2, Serine/threonine-protein kinase 17A (Homo sapiens, UniProt Q9UEE5).
T2 sequence (Q9UEE5 whole entry): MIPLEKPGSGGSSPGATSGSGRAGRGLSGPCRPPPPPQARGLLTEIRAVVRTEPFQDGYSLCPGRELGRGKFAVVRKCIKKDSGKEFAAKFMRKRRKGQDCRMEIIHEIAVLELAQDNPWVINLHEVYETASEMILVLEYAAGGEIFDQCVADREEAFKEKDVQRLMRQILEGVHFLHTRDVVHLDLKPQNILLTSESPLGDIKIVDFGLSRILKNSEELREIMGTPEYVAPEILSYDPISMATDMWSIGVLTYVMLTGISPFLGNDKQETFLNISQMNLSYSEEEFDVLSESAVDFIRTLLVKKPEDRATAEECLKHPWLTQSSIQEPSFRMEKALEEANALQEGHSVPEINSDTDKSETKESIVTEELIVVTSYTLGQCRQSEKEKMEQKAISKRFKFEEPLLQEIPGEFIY
In words: Inhibition of STK17A (unknown origin) in presence of ATP.

Data set [3] deals with Serine/threonine-protein kinase Nek5 (Homo sapiens) (UniProt Q6P3R8). As to conditions: dose 100.0 nM.
Chain of Serine/threonine-protein kinase Nek5 (Homo sapiens) (Q6P3R8 whole entry): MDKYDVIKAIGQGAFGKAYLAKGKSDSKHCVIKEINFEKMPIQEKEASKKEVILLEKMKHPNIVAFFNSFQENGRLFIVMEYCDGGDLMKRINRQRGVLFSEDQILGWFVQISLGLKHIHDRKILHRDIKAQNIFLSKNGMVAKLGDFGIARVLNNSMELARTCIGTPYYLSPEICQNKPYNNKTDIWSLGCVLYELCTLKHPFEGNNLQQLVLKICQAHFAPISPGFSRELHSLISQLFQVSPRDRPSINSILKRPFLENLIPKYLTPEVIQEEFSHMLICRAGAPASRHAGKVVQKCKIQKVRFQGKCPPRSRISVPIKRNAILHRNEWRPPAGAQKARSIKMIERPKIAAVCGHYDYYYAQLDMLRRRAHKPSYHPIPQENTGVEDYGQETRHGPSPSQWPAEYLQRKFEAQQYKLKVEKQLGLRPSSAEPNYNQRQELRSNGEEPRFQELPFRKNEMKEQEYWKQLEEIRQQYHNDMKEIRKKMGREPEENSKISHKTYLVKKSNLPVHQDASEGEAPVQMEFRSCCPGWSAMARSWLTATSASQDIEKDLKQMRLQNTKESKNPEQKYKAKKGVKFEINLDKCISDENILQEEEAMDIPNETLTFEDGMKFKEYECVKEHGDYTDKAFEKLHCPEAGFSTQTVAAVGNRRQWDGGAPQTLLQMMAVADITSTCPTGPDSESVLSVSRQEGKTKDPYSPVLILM
Description: Inhibition of NEK5 (unknown origin) at 100 nM in presence of ATP relative to control
For another data set, the target named is CYP3A4 (Homo sapiens, UniProt P08684). Put plainly: Inhibition of CYP3A4 (unknown origin) using midazolam as substrate at 10 uM by cocktail based assay relative to control. As to conditions: probe midazolam. The data set is classed as ADME.
Chain of CYP3A4 (P08684 whole entry): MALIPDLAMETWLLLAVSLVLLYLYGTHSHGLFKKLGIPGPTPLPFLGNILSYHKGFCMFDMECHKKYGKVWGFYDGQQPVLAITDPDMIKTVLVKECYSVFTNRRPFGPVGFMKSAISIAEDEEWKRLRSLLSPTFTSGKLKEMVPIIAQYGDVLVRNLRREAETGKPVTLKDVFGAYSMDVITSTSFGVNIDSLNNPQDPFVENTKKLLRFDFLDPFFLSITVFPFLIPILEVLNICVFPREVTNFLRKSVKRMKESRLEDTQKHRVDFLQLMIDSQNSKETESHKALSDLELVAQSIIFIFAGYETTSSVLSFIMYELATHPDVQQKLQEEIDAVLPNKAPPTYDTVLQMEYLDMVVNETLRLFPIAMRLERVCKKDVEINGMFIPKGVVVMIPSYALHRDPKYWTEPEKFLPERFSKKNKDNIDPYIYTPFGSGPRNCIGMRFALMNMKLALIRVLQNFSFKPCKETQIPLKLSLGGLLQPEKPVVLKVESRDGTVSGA
Data set [4] is described as follows: Cmax in C57BL/6 mouse at 10 mg/kg,po administration and measured upto 24 hrs. The data set is classed as ADME, organism-based. The conditions noted are these: in vivo.
The target in the next data set is CYP2D6 (Homo sapiens, UniProt P10635). In words: Inhibition of CYP2D6 (unknown origin) using bufuralol as substrate at 10 uM by cocktail based assay relative to control. The class given is ADME. The conditions noted are these: probe bufuralol.
Chain of CYP2D6 (P10635 whole entry): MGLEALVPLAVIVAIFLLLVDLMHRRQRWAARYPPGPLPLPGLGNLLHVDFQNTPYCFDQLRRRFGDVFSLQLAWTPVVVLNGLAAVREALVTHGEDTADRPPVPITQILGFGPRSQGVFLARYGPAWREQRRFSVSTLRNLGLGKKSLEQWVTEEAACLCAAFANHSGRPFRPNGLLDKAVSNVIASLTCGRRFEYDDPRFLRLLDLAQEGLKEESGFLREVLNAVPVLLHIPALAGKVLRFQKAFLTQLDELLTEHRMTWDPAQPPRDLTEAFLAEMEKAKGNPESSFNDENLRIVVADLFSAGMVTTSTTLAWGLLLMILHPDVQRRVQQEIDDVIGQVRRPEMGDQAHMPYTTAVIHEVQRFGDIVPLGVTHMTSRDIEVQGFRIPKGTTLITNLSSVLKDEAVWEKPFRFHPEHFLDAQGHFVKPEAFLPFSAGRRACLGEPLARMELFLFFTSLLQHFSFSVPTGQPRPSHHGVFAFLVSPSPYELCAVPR
Data set [5] is described as follows: Microsomal stability in mouse liver microsomes assessed as half life. The data set is classed as ADME, Microsome. Background: Liver microsomes are vesicles of endoplasmic reticulum, rich in cytochrome P450 enzymes.
The target of data set [6] is Serine/threonine-protein kinase 17B (Homo sapiens) (UniProt O94768). Put plainly: Inhibition of STK17B (unknown origin) at 1 uM in presence of ATP relative to control.
Chain of Serine/threonine-protein kinase 17B (Homo sapiens) (O94768 whole entry): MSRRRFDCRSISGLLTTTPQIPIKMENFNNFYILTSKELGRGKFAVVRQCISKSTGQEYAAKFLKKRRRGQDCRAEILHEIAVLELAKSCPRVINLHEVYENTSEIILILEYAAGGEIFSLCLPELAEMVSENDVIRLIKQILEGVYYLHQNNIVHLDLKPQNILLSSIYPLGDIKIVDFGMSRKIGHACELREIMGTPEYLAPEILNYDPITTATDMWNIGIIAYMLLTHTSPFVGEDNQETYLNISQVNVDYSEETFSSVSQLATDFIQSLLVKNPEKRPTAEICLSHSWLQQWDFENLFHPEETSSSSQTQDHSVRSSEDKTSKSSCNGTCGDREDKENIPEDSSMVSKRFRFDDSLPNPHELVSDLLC
Data set [7] deals with Serine/threonine-protein kinase Nek3 (Homo sapiens, UniProt P51956). In words: Inhibition of NEK3 (unknown origin) in presence of ATP.
Chain of Serine/threonine-protein kinase Nek3 (P51956 whole entry): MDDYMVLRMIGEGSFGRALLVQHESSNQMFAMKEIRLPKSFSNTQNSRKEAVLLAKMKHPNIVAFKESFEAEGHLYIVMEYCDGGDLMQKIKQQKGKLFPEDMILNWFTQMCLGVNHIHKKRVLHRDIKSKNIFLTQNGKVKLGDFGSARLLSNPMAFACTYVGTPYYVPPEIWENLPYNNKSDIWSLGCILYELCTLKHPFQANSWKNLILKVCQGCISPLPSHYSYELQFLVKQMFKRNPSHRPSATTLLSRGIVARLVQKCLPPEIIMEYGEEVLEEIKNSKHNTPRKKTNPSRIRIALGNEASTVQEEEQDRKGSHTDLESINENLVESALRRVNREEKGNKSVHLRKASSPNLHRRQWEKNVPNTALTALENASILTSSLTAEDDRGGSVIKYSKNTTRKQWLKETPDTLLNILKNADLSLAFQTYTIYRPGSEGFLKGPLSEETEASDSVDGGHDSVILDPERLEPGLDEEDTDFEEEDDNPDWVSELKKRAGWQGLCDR
The nature of data set [8]: Microsomal stability in human liver microsomes assessed as half life. The data set is classed as ADME, Microsome.
The target of data set [9] is T1, LIM domain kinase 1. As to conditions: dose 100.0 nM.
Target sequence in this assay (P53667 whole entry, looked up, the tested form may be a part): as the sequence (P53667 whole entry, the tested form may be a part) above
Description: Inhibition of LIMK1 (unknown origin) at 100 nM in presence of ATP relative to control
The next data set concerns HEL. Put plainly: Antiproliferative activity against human HEL cells assessed as inhibition of cell growth incubated for 72 hrs by Cell Titer-Glo luminescence assay. The data set is classed as functional, cell-based. A general note: In ATP-based viability assays light output follows the ATP content of the culture.
For another data set, the target named is CYP2C9 (Homo sapiens, UniProt P11712). In words: Inhibition of CYP2C9 (unknown origin) using tolbutamide as substrate at 10 uM by cocktail based assay relative to control. The data set is classed as ADME. As to conditions: probe tolbutamide.
Chain of CYP2C9 (P11712 whole entry): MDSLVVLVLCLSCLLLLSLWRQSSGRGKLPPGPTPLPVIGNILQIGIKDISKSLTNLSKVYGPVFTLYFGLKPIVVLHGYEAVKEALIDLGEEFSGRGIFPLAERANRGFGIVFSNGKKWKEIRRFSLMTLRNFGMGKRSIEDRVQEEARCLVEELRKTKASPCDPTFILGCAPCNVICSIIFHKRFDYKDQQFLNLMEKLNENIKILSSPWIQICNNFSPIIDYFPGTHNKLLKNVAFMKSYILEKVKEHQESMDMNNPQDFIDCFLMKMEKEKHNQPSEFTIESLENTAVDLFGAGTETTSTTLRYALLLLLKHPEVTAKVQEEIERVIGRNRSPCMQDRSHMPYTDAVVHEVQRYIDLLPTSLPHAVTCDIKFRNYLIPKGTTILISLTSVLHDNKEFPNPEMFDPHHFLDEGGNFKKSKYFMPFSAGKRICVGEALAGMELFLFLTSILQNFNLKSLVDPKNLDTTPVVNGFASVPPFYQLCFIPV
The target of data set [10] is Dual specificity protein kinase CLK4 (Homo sapiens, UniProt Q9HAZ1). Put plainly: Inhibition of CLK4 (unknown origin) in presence of ATP.
Chain of Dual specificity protein kinase CLK4 (Q9HAZ1 whole entry): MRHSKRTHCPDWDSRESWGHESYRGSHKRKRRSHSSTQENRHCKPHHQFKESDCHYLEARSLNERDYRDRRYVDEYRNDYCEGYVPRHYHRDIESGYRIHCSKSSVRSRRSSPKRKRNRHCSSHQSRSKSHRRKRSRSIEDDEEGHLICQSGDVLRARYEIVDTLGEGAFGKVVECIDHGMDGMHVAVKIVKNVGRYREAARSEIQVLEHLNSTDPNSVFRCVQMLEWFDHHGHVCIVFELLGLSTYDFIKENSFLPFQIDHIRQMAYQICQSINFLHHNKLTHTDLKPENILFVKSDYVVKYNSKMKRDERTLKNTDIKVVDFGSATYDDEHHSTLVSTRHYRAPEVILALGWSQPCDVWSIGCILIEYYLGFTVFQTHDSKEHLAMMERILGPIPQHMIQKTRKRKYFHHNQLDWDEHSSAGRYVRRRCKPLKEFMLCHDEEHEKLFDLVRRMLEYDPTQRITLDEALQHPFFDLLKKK
In data set [11] the target is T3, Myosin light chain kinase family member 4 (Homo sapiens, UniProt Q86YV6).
T3 sequence (Q86YV6 whole entry): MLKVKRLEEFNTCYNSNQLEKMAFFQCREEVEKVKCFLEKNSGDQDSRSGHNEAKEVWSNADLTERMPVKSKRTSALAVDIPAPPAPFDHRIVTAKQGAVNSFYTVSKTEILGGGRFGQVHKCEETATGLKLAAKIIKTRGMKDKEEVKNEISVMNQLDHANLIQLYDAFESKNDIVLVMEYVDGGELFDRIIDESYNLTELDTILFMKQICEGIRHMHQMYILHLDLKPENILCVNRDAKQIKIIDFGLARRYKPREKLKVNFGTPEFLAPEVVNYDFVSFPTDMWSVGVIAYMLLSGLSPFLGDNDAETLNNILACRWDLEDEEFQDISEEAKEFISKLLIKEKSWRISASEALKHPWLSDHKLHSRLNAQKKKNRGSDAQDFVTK
In words: Inhibition of MYLK4 (unknown origin) in presence of ATP.

A short description of data set [12]: AUClast in C57BL/6 mouse at 10 mg/kg,po administration and measured upto 24 hrs. The class given is ADME, organism-based. The conditions noted are these: in vivo.
The nature of data set [13]: Half life in C57BL/6 mouse at 10 mg/kg,po administration and measured upto 24 hrs. The class given is ADME, organism-based. The conditions noted are these: in vivo.
In data set [14] the target is Serine/threonine-protein kinase Nek5 (Homo sapiens, UniProt Q6P3R8). Put plainly: Inhibition of NEK5 (unknown origin) in presence of ATP.
Chain of Serine/threonine-protein kinase Nek5 (Q6P3R8 whole entry): as the sequence (Q6P3R8 whole entry) above
A further data set concerns MOLM-13. In words: Antiproliferative activity against human MOLM-13 cells assessed as inhibition of cell growth incubated for 72 hrs by Cell Titer-Glo luminescence assay. The class given is functional, cell-based. As to conditions: MOLM-13, 72 h.
Data set [15] deals with Serine/threonine-protein kinase Nek3 (Homo sapiens) (UniProt P51956). The conditions noted are these: dose 100.0 nM.
Chain of Serine/threonine-protein kinase Nek3 (Homo sapiens) (P51956 whole entry): as the sequence (P51956 whole entry) above
Description: Inhibition of NEK3 (unknown origin) at 100 nM in presence of ATP relative to control
Data set [16] in a line: Tmax in C57BL/6 mouse at 10 mg/kg,po administration and measured upto 24 hrs. The data set is classed as ADME, organism-based. As to conditions: in vivo.
Data set [17] can be described thus: Antiproliferative activity against human HEK293T cells assessed as inhibition of cell growth incubated for 72 hrs by Cell Titer-Glo luminescence assay. The class given is toxicity, cell-based, HEK-293T.
Another data set concerns Kasumi 1. In words: Antiproliferative activity against human Kasumi 1 cells assessed as inhibition of cell growth incubated for 72 hrs by Cell Titer-Glo luminescence assay. The class given is functional, cell-based. As to conditions: Kasumi 1, 72 h.
The target of a further data set is T4, CYP1A2 (Homo sapiens, UniProt P05177).
T4 sequence (P05177 whole entry): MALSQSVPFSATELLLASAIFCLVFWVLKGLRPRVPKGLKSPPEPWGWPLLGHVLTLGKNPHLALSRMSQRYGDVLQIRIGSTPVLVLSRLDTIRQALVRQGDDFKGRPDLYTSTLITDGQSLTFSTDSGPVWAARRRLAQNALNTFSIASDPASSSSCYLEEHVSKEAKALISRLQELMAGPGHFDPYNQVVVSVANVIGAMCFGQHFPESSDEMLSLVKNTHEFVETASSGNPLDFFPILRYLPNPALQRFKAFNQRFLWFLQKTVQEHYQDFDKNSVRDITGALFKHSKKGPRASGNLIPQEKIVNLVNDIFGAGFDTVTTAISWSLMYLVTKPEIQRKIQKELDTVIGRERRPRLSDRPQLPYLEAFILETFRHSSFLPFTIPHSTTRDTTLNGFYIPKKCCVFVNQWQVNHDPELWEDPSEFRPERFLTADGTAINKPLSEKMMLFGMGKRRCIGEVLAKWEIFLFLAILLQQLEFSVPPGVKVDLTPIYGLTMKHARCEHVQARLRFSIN
Put plainly: Inhibition of CYP1A2 (unknown origin) using phenacetin as substrate at 10 uM by cocktail based assay relative to control. The data set is classed as ADME. As to conditions: probe phenacetin.

In general, IC50 refers to the point on the concentration scale where inhibition reaches its midpoint. As a reminder, the inhibition is the relative decrease from the control value, in per cent. The Cmax is the peak of the concentration-time curve. Usually half-life stands for how long it takes for the measured level to halve. One may read the AUC(0-t) as exposure summed from dosing to a finite time, without extrapolation to infinity. Higher therefore signals more exposure. As a reminder, the Tmax is the time from dosing to the highest level.

As to `CC(C)NC(=O)c1ccc(Nc2nccc(-c3ccc4nc(N5CCCC5)ncc4c3)n2)cc1`, the IC50 at LIM domain kinase 1 [1] is 650 nM; in data set [2], 23 nM; in [7], 245 nM; in the data set on HEL it was 2310 nM; in [10], over 10000 nM; in data set [11], 440 nM. For the same compound, the IC50 is 132 nM in [14], 920 nM in the data set on MOLM-13 and 7670 nM in the data set with Kasumi 1. For the same compound, the inhibition in [3] is 45%; in [6] it was 98%; against LIM domain kinase 1 [9], 46%; in data set [15] it was 40%. For the same compound, the inhibition at 10 µM on CYP3A4 was 16%; at CYP2D6 it was 3%; on CYP2C9 it was 14%; on CYP1A2, under 10%. Moreover, in data set [4], the Cmax turned out to be 1000 nM. The results for the half-life in data set [5], in data set [8] and in data set [13] were 37 min, 45 min and 162 min, respectively. Moreover, the AUC(0-t) at 24 h in data set [12] was determined as 4.2 µM·h. The Tmax in [16] amounted to 60 min. The IC50 at 72 h in data set [17] is 99500 nM.
